Test results as given in publication PMC8318231, “Rate-of-Kill (RoK) assays to triage large compound sets for Chagas disease drug discovery: Application to GSK Chagas Box” (PLoS Neglected Tropical Diseases, 2021).

Assays:
[1] = test system: T. cruzi intracellular amastigotes in H9c2 cells; assay: Rate-of-Kill (RoK) high-content imaging assay, amastigotes per cell (AM/CELL) and curve descriptors; assay type: cell-based, Trypanosoma cruzi; design: key to ME_24h / ME_48h / ME_72h: % reduction in parasite burden (cidal response); t50pct_MCC50 / t50pct_Cmax: unit not given here; details: for ME_24h: 24h; for ME_48h: 48h; for ME_72h: 72h; for AM/CELL NORM: sheet figure 4 A; for tlag_Cmax / t50pct_Cmax / t50%_Cmax: at Cmax; for ME_24h (%): maximum effect at 24 h; for ME_24h (%) / ME_48h (%) / ME_72h (%): RoK assay; for ME_48h (%): maximum effect at 48 h; for ME_72h (%): maximum effect at 72 h; for ME 24h (maximum effect at 24 hours, intracellular amastigotes): maximum percentage of parasite burden reduction reached by any concentration
Description: For this high-content intracellular imaging assay, H9c2 cells were seeded in 225 cm^2 T- FLASK in DMEM with 10% FBS for 4 h to allow attachment. T. cruzi trypomastigotes, collected at days 5 to 8 after infection from LLC-MK2 parasite infected cultures, were allowed to swim out for 4 h at 37°C from a centrifuged pellet (1,600 x g / 10 min). Trypomastigotes were then collected and counted in a CASY Cell Counter using the 60 μm capillary. Trypomastigotes, in supplemented DMEM, were added to H9c2 cultures in a multiplicity of infection (MOI) of 8 and incubated for 18 h. Cells were washed once with PBS before incubation of the infected H9c2 monolayer with trypsin (Life-Technologies) to detach cells from the flask. Cells were counted in a CASY Cell Counter, using the 150 μm capillary, and their density set at 5 x 10^4 cells/mL in supplemented DMEM. Infected H9c2 were dispensed into 384-well plates at 50 μL per well using a Multidrop Combi dispenser. Control wells used to determine a 100% parasitic growth (full 6th column of each plate) were left untreated, whereas not infected cells were added in the control wells used as 0% parasite growth (or 100% parasite growth inhibition; full 18th column of each plate). The four plates corresponding to each RoK assay were predispensed for the same mother plate. […] Cultures were then fixed and stained with 50 μL per well of a PBS solution containing 4% formaldehyde and 2 μM DRAQ5 DNA dye (BioStatus, UK). Then plates were read in a PerkinElmer Opera Phenix using a 20x objective, 3 fields per well. DRAQ5 signal was detected using 640 nm excitation laser and a 690/50 nm emission detection filter. Automated image analysis was performed with a script developed on Acapella High Content Imaging and Analysis Software (PerkinElmer). Two outputs were provided for each sample well: (1) number of host cells nuclei to determine drug-related cytotoxicity (aka H9c2) and (2) number of amastigotes per cell as infection level measurement (aka AM/CELL). Each output is plotted as a time course for each compound at every concentration. This assay was adapted from Alonso-Padilla et al. and Peña et al..
To identify and classify the different compounds, the number of amastigotes per cell (AM/CELL) raw data obtained in rate of kill assay are normalised using the average of C1 (infected cells) at time 4 hours as 0% effect and the average of C2 (non-infected cells) for each time as 100% effect, according to the following Eq 1: %CIDALRESPONSE=100*[Avg_C14h-RawData]/[Avg_C14h-Avg_C2] (1)
• ME (Maximum Effect) is the maximum percentage of parasite burden reduction reached by any compound concentration. Compounds that decrease the initial parasite load will show a positive value of ME, whereas compounds that allow the progression of infection will render a negative ME value. […] It is calculated for the MCC50 (t50%_MCC50) and for the maximum concentration (t50%_Cmax). […] The value of this parameter is not either interpolated or extrapolated, and it refers to the first experimental time-course point at which a 50% of effect is reached or exceeded. • tlag defines the time elapsed for one particular concentration to reduce parasite burden between two consecutive points at any moment of the time course. It is calculated for the MCC50 (tlag_MCC50) and for the maximum concentration (tlag_Cmax). The value of this parameter is not either interpolated or extrapolated, and it refers to the first experimental time-course point of a positive slope in the normalised plot (i.e. %Cidal_Response). • Cmin_Tox (Minimal CytoToxic Concentration) is the lowest compound concentration that is reducing the number of host mammalian cells below 50% of initial cell density. Cytotoxic compounds may mislead a bona fide antiparasitic action.

[2] = test system: T. cruzi Tulahuen trypomastigotes; assay: T. cruzi trypomastigote assay (Cell Titer-Glo viability, ATP luminescence); assay type: cell-based, Trypanosoma cruzi; details: for Trypomastigotes pIC50 48 hours: 48 hours incubation; for Trypomastigotes pIC50 48 hours / Trypomastigotes pIC50 72 hours: pIC50 = -log10 IC50 in molar units; for Trypomastigotes pIC50 72 hours: 72 hours incubation; for 72 pIC50 (trypomastigotes, raw data of Fig 1D): 72 hours, plotted values, censored values given without sign; for 48 pIC50 / 72 pIC50: trypomastigote assay; for 48 pIC50: 48 h; for 72 pIC50: 72 h
Summary of the method: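 Tulahuen trypomastigotes from infected LLC-MK2 culture supernatants (days 5–8) plated at 5 × 10^4 per well in DMEM/2% FBS with compound at 5 μM single-shot final or in dose response. Viability by CellTiter-Glo ATP luminescence after 10 min at room temperature, normalised to no-cell (100%) and DMSO (0%) controls.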

## CC(C)Nc1nccc(-c2c(-c3ccc(F)cc3)ncn2C2CCOCC2)n1 [TCMDC-143379]
[1]; figure 5
  ME_24h: -22.482
  ME_48h: -3.3846
  ME_72h: 36.7081
  t50pct_Cmax: 72
  tlag_Cmax: 24
  MCC50: 50 µM
  MCCE: 0.2058
[1]; RoK curve descriptor
  MCCE: 0.2 µM
[1]; Time 4
  AM/CELL NORM: -6.859
[1]; Time 24
  AM/CELL NORM: -37.6965
[1]; Time 48
  AM/CELL NORM: -3.3846
[1]; Time 72
  AM/CELL NORM: 36.7081
[1]
  tlag_Cmax: 24.0 h
  ME_24h (%): -22.5%
  ME_48h (%): -3.4%
  ME_72h (%): 36.7%
  ME 24h (maximum effect at 24 hours, intracellular amastigotes): -22.482%
[1]; at MCC50, figure 5
  t50pct_MCC50: 72
  tlag_MCC50: 72
[2]
  Trypomastigotes pIC50 48 hours: < 4.3
  Trypomastigotes pIC50 72 hours: < 4.3
  72 pIC50 (trypomastigotes, raw data of Fig 1D): < 4.3
[2]; figure 1A
  48 pIC50: < 4.3
  72 pIC50: < 4.3
[2]; figure 1B
  72 pIC50: < 4.3

## Cn1cncc1CN1CCC2(CC1)COC(Cc1ccccc1)C2 (centres unmarked) [TCMDC-143502]
[1]; figure 5
  ME_24h: -3.518
  ME_48h: 29.7799
  ME_72h: 64.8887
  t50pct_Cmax: 72
  tlag_Cmax: 48
  MCCE: 1.852
[1]; RoK curve descriptor
  MCC50: 5.6 µM
  MCCE: 1.9 µM
[1]; Time 4
  AM/CELL NORM: 12.5806
[1]; Time 24
  AM/CELL NORM: -3.518
[1]; Time 48
  AM/CELL NORM: -12.3342
[1]; Time 72
  AM/CELL NORM: 16.2947
[1]
  tlag_Cmax: 48.0 h
  ME_24h (%): -3.5%
  ME_48h (%): 29.8%
  ME_72h (%): 64.9%
  ME 24h (maximum effect at 24 hours, intracellular amastigotes): -3.518%
[1]; at MCC50
  t50%_MCC50: 72.0 h
  tlag_MCC50: 24.0 h
[1]; at MCC50, figure 5
  t50pct_MCC50: 72
  tlag_MCC50: 24
[1]; figure 5, in µM
  MCC50: 5.556
[2]
  Trypomastigotes pIC50 48 hours: < 4.3
  Trypomastigotes pIC50 72 hours: < 4.3
  72 pIC50 (trypomastigotes, raw data of Fig 1D): < 4.3
[2]; figure 1A
  48 pIC50: < 4.3
  72 pIC50: < 4.3
[2]; figure 1B
  72 pIC50: < 4.3

## COc1ccc(S(=O)(=O)NCc2ccc(-c3ccc(CN(C)CCO)cc3)cc2)cc1.O=C(O)C(F)(F)F [TCMDC-143549]
[1]; figure 5
  ME_24h: 31.0393
  ME_48h: 40.4277
  ME_72h: 76.5332
  t50pct_Cmax: 72
  tlag_Cmax: 4
  MCCE: 5.556
[1]; RoK curve descriptor
  MCC50: 16.7 µM
  MCCE: 5.6 µM
[1]; Time 4
  AM/CELL NORM: -7.714
[1]; Time 24
  AM/CELL NORM: 31.0393
[1]; Time 48
  AM/CELL NORM: 40.4277
[1]; Time 72
  AM/CELL NORM: 76.5332
[1]
  t50%_Cmax: 72.0 h
  tlag_Cmax: 4.0 h
  ME_24h (%): 31.0%
  ME_48h (%): 40.4%
  ME_72h (%): 76.5%
  ME 24h (maximum effect at 24 hours, intracellular amastigotes): 31.0393%
[1]; at MCC50
  t50%_MCC50: 72.0 h
  tlag_MCC50: 24.0 h
[1]; at MCC50, figure 5
  t50pct_MCC50: 72
  tlag_MCC50: 24
[1]; figure 5, in µM
  MCC50: 16.6667
[2]
  Trypomastigotes pIC50 48 hours: 4.6
  Trypomastigotes pIC50 72 hours: < 4.3

## N#Cc1ccc(S(=O)(=O)N2CCC3(CCN(c4ccccc4)C3=O)CC2)cc1 [TCMDC-143371]
[1]; figure 5
  ME_24h: -78.0559
  ME_48h: 40.2473
  ME_72h: 62.6058
  t50pct_Cmax: 72
  tlag_Cmax: 36
  MCCE: 1.235
[1]; RoK curve descriptor
  MCC50: 5.6 µM
  MCCE: 1.2 µM
[1]; Time 4
  AM/CELL NORM: 10.0376
[1]; Time 24
  AM/CELL NORM: -56.4995
[1]; Time 48
  AM/CELL NORM: 45.4375
[1]; Time 72
  AM/CELL NORM: 85.4584
[1]
  t50%_Cmax: 72.0 h
  tlag_Cmax: 36.0 h
  ME_24h (%): -78.1%
  ME_48h (%): 40.3%
  ME_72h (%): 62.6%
  ME 24h (maximum effect at 24 hours, intracellular amastigotes): -50.5626%
[1]; at MCC50
  t50%_MCC50: 72.0 h
  tlag_MCC50: 24.0 h
[1]; at MCC50, figure 5
  t50pct_MCC50: 72
  tlag_MCC50: 48
[1]; figure 5, in µM
  MCC50: 27.7778
[2]
  Trypomastigotes pIC50 48 hours: < 4.3
  Trypomastigotes pIC50 72 hours: < 4.3
  72 pIC50 (trypomastigotes, raw data of Fig 1D): < 4.3
[2]; figure 1A
  48 pIC50: < 4.3
  72 pIC50: < 4.3
[2]; figure 1B
  72 pIC50: < 4.3

## O=C(Nc1ccc(Br)c(Cl)c1)Nc1ccc2c(c1)OCO2 [TCMDC-143588]
[1]; figure 5
  ME_24h: 4.143
  ME_48h: 11.8076
  ME_72h: -0.7061
  t50pct_Cmax: 72
  tlag_Cmax: 24
  MCC50: 50 µM
  MCCE: 5.556
[1]; RoK curve descriptor
  MCCE: 5.6 µM
[1]; Time 4
  AM/CELL NORM: 16.6619
[1]; Time 24
  AM/CELL NORM: 4.143
[1]; Time 48
  AM/CELL NORM: 11.8076
[1]; Time 72
  AM/CELL NORM: -47.3133
[1]
  tlag_Cmax: 24.0 h
  ME_24h (%): 4.1%
  ME_48h (%): 11.8%
  ME_72h (%): -0.7%
  ME 24h (maximum effect at 24 hours, intracellular amastigotes): 4.143%
[1]; at MCC50, figure 5
  t50pct_MCC50: 72
  tlag_MCC50: 72
[2]
  Trypomastigotes pIC50 48 hours: 5.5
  Trypomastigotes pIC50 72 hours: < 4.3
